Data taken from article PMC3382171 (PLoS ONE, 2012).

Tests used:
[1] = molecular target: T1, CAMK-1 (Homo sapiens, UniProt Q14012); assay: biochemical; settings: read-out: Dundee KSS % inhibition at 1uM
T1 construct: gene CAMK1
Procedure: (§1) The METi and RAFi were screened against kinase panels (SelectScreen, Invitrogen; University of Dundee, Division of Signal Transduction Therapy, UK; Upstate Biotechnology/Millipore, Billerica, MA). In these selectivity assays the concentration of ATP was set to the Km value of ATP for each kinase tested to allow for a relative potency comparison between the various kinases. The compounds were tested at 1 µM final concentration. […] (A) Kinase selectivity screen (KSS) performed at Upstate Biotechnology. […] (B) KSS performed at University of Dundee (Division of Signal Transduction Therapy). […] (PDF) Click here for additional data file.

[2] = molecular target: ZAP70 (Homo sapiens, UniProt P43403); assay: biochemical; set-up: gene ZAP70; settings: read-out: Upstate KSS % inhibition at 1uM
Procedure: as §1, with “In” for “The METi and RAFi were screened against kinase panels (SelectScreen, Invitrogen; University of Dundee, Division of Signal Transduction Therapy, UK; Upstate Biotechnology/Millipore, Billerica, MA). In”

Sequence of ZAP70 (P43403 whole entry): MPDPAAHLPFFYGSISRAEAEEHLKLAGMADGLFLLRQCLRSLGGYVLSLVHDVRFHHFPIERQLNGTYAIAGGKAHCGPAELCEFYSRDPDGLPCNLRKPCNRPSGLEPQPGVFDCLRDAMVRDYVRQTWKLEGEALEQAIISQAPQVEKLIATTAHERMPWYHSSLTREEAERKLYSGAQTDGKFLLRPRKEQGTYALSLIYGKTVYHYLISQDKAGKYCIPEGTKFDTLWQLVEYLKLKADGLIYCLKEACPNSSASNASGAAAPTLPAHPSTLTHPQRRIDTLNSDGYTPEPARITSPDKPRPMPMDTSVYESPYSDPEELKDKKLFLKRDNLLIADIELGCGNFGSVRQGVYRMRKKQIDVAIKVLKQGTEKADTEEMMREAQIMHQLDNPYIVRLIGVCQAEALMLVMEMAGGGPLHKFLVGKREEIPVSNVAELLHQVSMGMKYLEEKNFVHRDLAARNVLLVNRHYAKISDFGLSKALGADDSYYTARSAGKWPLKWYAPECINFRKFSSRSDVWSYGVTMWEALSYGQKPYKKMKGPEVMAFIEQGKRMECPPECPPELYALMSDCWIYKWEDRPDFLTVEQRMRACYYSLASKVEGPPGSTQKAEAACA
T1 sequence (Q14012 whole entry): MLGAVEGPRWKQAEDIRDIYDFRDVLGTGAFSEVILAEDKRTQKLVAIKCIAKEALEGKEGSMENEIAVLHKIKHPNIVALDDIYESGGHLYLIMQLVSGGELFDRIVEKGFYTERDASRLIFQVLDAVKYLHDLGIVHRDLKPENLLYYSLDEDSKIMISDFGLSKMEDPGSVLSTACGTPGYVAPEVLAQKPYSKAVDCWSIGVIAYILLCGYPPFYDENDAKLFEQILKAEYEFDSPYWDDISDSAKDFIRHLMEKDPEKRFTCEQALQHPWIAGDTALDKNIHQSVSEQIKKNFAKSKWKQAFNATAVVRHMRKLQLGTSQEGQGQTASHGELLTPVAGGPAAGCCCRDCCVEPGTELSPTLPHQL

For `OCCn1cc(-c2cnc3nnn(Cc4ccc5ncccc5c4)c3n2)cn1` [METi, PF-04217903], the inhibition at 1 µM [1] was 12.8% and the inhibition at 1 µM [2] was 3%.
